Measurements as given in patent US20040170581A1, “Cosmetic agents” (priority 2001, published 2004).

What was measured:
[1] = system: superoxide anions O2° produced by lipoxygenase; experiment: Anti-free radical test with superoxide anions produced by lipoxygenase; assay type: biochemical
Method: Activity against free radicals was determined by a biochemical test with a reactive oxygen species (ROS), the so-called superoxide anion (O2°). Superoxide anions come from xanthine oxidase and lipoxygenase activities. Xanthine oxidase (XOD) is an enzyme which is activated during oxidative stress and catalyzes the release of O2° during the degradation of hypoxanthine (HX) which is produced in excess in the event of a disturbance to the energy cell metabolism. O2° is then reacted spontaneously or by superoxide dismutase (SOD) to form hydrogen peroxide (H2O2) which in turn is a source of HO radicals which continue reacting in the Fenton reaction. O2° released during an inflammation process is formed from arachidonic acid by the lipoxygenase activity of leucocytes during the leucotriene synthesis (MacCord, M., Chabot Fletcher, M., Breton, J., Marshall, L.A.; Journal of Investigative Dermatology, 1994, Vol. 102, pp. 980-986; Bouclier, M., Hensby C.N.; Annales de Dermatologie & de V{acute over (en)}reologie, 1986, Vol. 113, pp. 1289-1293).
The enzymatic system arachidonic acidlipoxygenase leads during the synthesis of leucotrienes to the formation of O2° which can be determined by luminescence via luminol. Activity against free radicals is greater, the more the luminescence is suppressed.

[2] = system: G6PDH (glucose 6 phosphate dehydrogenase); experiment: G6PDH activity on human dermal fibroblasts; assay type: cell-based; conditions: control = 100, 8 assays
Text: This test was used to determine stimulation of the enzyme G6PDH (glucose 6 phosphate dehydrogenase) which counteracts the ageing process of human skin. G6PDH catalyzes the first step of the “pentose shunt” (also known as hexose monophosphate shunt or HMP shunt). The first step, the transformation of glucose-6-phosphate (G6P) into 6-phosphogluconate (6GP) by G6PDH, needs the coenzyme NADP which in turn is converted into NADPH2. This reduced form of the coenzyme catalyzes many enzymatic reactions and also glutathione recycling and lipid synthesis.
Determination of the G6PDH activity (glucose 6 phosphate dehydrogenase) was carried out by the microprocess described by Garidelli de Quincenet in Annual Dermatol. Venereol. 107 (12), 1163-1170 (1980). The DNA content was determined by the method described by Desaulniers in Toxic. In vitro 12 (4), 409-422 (1998) using in vitro cultures of human dermal fibroblasts. […]

[3] = system: human keratinocytes; experiment: Cell protection against UV-B rays (cellular DNA, LDH release); assay type: cell-based; conditions: UV-B 50 mJ/cm^2, conc. 0.01 % w/v
Method: UV-B was selected as the stress factor because the rays produce cutaneous inflammation ([…]) by activating enzymes that release arachidonic acid, such as phospholipase A2 (PLA2) for example. […] The influence of UV-B rays on keratinocytes was determined in vitro through the release of cytoplasmatic enzymes, such as LDH (lactate dehydrogenase) for example, which runs parallel to the cell damage and the formation of PGE2. To carry out the test, a fibroblast culture was mixed with foetal calf serum and inoculated with the test substances 2 days later. After incubation for 36 h at 37° C. and a CO2 level of 5% by vol., the nutrient medium was replaced by an electrolyte solution and the fibroblasts were damaged with a particular dose of UV-B (50 mJ/cm^2). The quantity of keratinocytes was determined after trypsination via a cell counter while the LDH concentration was enzymatically determined.

Question: `O=C(O)/C=C/c1ccc(O)c(O)c1` [Caffeic acid] was tested. Which “% Inhibition” value ([1]; concentration 0.00002 % w/v) did it give?
Answer: Its value is 16%.

Question: And the “% Inhibition” value ([1]; concentration 0.0002 % w/v)?
Answer: Its value is 54%.

Question: Which “Level of G6PDH activity on day 6 (%/against control) Average value” ([2]; concentration 0.0003 mM) does the source give for `CC1=C(/C=C/C(C)=C/C=C/C(C)=C/C(=O)O)C(C)(C)CCC1` [Retinoic acid] here?
Answer: Its value is 120 %/against control.

Question: And the “Level of G6PDH activity on day 6 (%/against control) Average value” ([2]; concentration 0.001 mM)?
Answer: The value was 128 %/against control.

Question: With `O=C1O[C@H]([C@@H](O)CO)C(O)=C1O` [ascorbic acid] as the compound, how does the LDH released ([3]; blank with UV-B = 100) read?
Answer: Its LDH released is 50 %-rel.

Question: What about the “Cellular DNA” value ([3]; blank without UV-B = 100, blank with UV-B = 29) of the same compound?
Answer: The value was 48 %-rel.
